From patent publication US9290740B2, “Use of basic fibroblast growth factor in the de-differentiation of animal connective tissue cells” (Worcester Polytechnic Institute, priority 2008, dated 2016)
Entries after “also recorded” stand apart in the source; their conditions may differ.

Test system: Msx-1, Msx-2, Sox-2, Oct-4 and Nanog in adult human fibroblasts (CRL-2352)
Assay: Immunocytochemistry / western blot for stem cell transcription factors in FGF2-cultured fibroblasts
Assay type: cell-based
Description: Adult human fibroblasts (CRL-2352, ATCC) were cultured in conditions of 37° C., 5% CO2, 5% O2 90% N2 were seeded into 24 well plates (BD Falcon) either without substrate or with 15 mm Thermanox® coverslips (Nalge Nunc) at 5,000 cells per well in medium consisting of DMEM with 4 mM fresh L-glutamine: Ham's F12 medium (50:50) supplemented with 1×TCH serum replacement (Protide Pharmaceuticals), 1×ITS-X (Invritrogen), 2% FetalClone III (Hyclone), and 4 ng/ml FGF2 (Chemicon). After 5 days, the cells were washed with DPBS w/o Ca/Mg (Mediatech) and fixed in methanol (−20° C.) for 10 min, washed with DPBS and stored in DPBS at 4° C. until use. For detection of nuclear antigens (Msx-1, Msx-2, Sox-2, Oct-4 and Nanog), enhanced nuclear membrane permeabilization was performed by incubation with 1.5 N HCl for 20 min, followed by 3 washes (5 min) in PBS. For immuno-cytochemistry, cells were washed with PBS/Tween (PBS, MediaTech with 0.05% Tween-20, Biorad) and blocked for 30 min at RT with PBS containing 0.05% Tween, 5% FBS, and 1% BSA). Primary antibodies (1:200 dilution) were added in blocking solution for 30 min at RT. Cells were washed 4× in PBS/Tween and Alexafluor-568 labeled appropriate secondary antibody diluted 1:1000 in blocking solution added for 30 min. Cells were washed 4× in PBS/Tween and stored in PBS at 4 C until image analysis. Antibodies used were: Msx-1 (SantaCruz, sc-17726), Msx-2 (Santa Cruz, sc-17729), Sox-2 (Abeam, ab15830), Oct4 (Santa Cruz, sc-8630), Nanog (abeam ab21624) FGF receptor-1 (Abgent, AP7636a), FGF Receptor-2 (Abgent, AP7636a), FGF2 (N-terminus, Santa Cruz sc-1390), FGF2 (internal, Santa Cruz sc-79), fibroblast specific protein (FSP, Sigma). Coverslips were removed and mounted onto glass slides in 80% glycerol in PBS containing 0.1% Na-Azide and sealed with nail polish. Cells were visualized using at Olympus IX81 inverted microscope with epi-fluorescence using appropriate filters (Semrock, Inc.) and phase contrast. Images were collected using a 12 bit Hamamatzu CCD camera (Model C4742-80-12AG) and images processes using Slidebook®.
Fibroblasts were seeded into 24 well plates (BD Falcon) with 15 mm Thermanox® coverslips (Nunc) or #2 12 mm round glass coverslips (VWR) at 5,000 cells per well in medium consisting of DMEM with 4 mM fresh L-glutamine: Ham's F12 medium (60:40) supplemented with 1×TCH serum replacement (Protide Pharmaceuticals), 1×ITS-X (Invitrogen), 2% FetalClone III (Hyclone) and cultured at 37° C., 5% CO2, 5% O2 and 90% N2. For FGF2 treatments, FGF2 (4 ng/ml) was added to the medium at the time of seeding. After 7 days, the cells were washed with DPBS w/o Ca/Mg (Mediatech) and fixed in methanol (−20° C.) for 10 min, washed with DPBS and stored in DPBS at 4 C until use. Cells were washed with PBS/Tween (PBS, MediaTech with 0.05% Tween-20, Biorad) and blocked for 30 min at RT with PBS containing 0.05% Tween, 5% FBS, and 1% BSA). Primary antibodies (2.5 μg/ml) were added in blocking solution for 30 min at RT. Cells were washed 4× in PBS/Tween and Alexafluor-568 labeled appropriate secondary antibody (4 μg/ml) in blocking solution added for 30 min. Cells were washed 4× in PBS/Tween and stored in PBS at 4° C. until image analysis. Antibodies used were: Oct4 (Abcam ab19857), Sox2 (Abcam, ab15830), Nanog (Abcam, ab21624, FGFR-1 (Abgent, AP7636a), FGFR-2 (Abgent, AP7636a), FGFR3 (Abcam ab10651), FGFR4 (Abcam ab41948), FGF2 (Santa Cruz, sc-1390 and sc-79). Coverslips were removed and mounted onto glass slides in 80% glycerol in PBS containing 0.1% Na-Azide and sealed with nail polish. Cells were visualized using an Olympus IX81 inverted microscope with epi-fluorescence using appropriate filters (Semrock, Inc.) and phase contrast. Images were collected using a 12 bit Hamamatzu CCD camera and processed using Slidebook®. […]

FGF2: human recombinant FGF2 (Invitrogen, Chemicon or Protide), basic fibroblast growth factor
effect on Oct4, Sox2 and Nanog protein (FGF2 4 ng/ml, 5% O2, 7 days): translation and nuclear translocation
cells with stem-like nuclear localization of the transcription factors (FGF2, lowered oxygen, 7 days of culture): up to 30%
localization of Msx2, Sox2 and Oct4, Thermanox coverslips (Thermanox coverslips, 2% serum, low O2, FGF2): detected in the nucleus; also recorded: nuclear localization of all three transcription factors
FGF2 concentration at which Sox-2 is induced (culture for 2 days, preliminary dose response): 0.5 ng/mL
ICC for transcription factors Oct4, Sox2 and Msx1 (early transition of cultures grown in the presence of FGF2): positive
localization of induced Sox2 expression (preliminary dose response, before change to Thermanox coverslips): restricted to the cytoplasm
expression of Msx-2, Sox-2 and Oct-4, tissue culture plastic (tissue culture plastic, low O2, low serum, FGF2 4 ng/ml, 5 days): some cytoplasmic expression
